In patent EP0377642B1, “HERBICIDES FOR WEED CONTROL IN RICE” (E.I. DU PONT DE NEMOURS AND COMPANY, priority 1987, dated 1989):
Like-named read-outs stand apart in the source and are kept apart here.

Tests used:
Type in all cases: in vivo
rice [1] = test: Effects in combination with Thiobencarb and Bensulfuron Methyl on rice growth (Table 22); conditions: var. Koshihikari, applied 7 days after transplanting, rated 21 days after application
Source text: (§1) Methyl 2-[[[[(4-methoxy-6-methyl-1,3,5-triazin-2-yl)amino]carbonyl]amino]sulfonyl]benzoate (Compound 1) and mixtures thereof with other compounds were applied as a spray (using a hand sprayer) to rice (either transplanted or direct seeded) in several rice growing areas in Southeast Asia and in the U.S. Tables 1-28 contain the results of these tests and clearly exemplify the utility of this invention. The details of each application are included in the appropriate table. [drawing 2]

FIMBRISTYLIS MILIACEA [2] = test: Herbicidal efficacy alone and with 2,4-D in Thailand (Table 3); conditions: 600 GAI/HA, 6 weeks after application
Source text: as §1

Cyperus iria [3] = test: Field test applied at 25 DAS in direct seeded rice (Table 13); conditions: 1,500 GM.A.I./HA, scale 0-10
Source text: as §1

Sphenoclea zeylanica [4] = test: as above; conditions: 1,500 GM.A.I./HA, scale 0-10
Source text: as §1

rice [5] = test: Effects on rice growth in Thailand, phytotoxicity (Table 4); conditions: 600 GAI/HA, scale 0-10
Source text: as §1

direct seeded rice = conditions: 1,500 GM.A.I./HA; for PHYTO at 2WAA: scale 0-10
Source text: as §1

FIMBRISTYLIS MILIACEA [6] = test: Field test applied at 18 DAS in direct seeded rice (Table 12); conditions: 1,500 GM.A.I./HA, scale 0-10
Source text: as §1

Cyperus iria [7] = test: as above; conditions: 1,500 GM.A.I./HA, scale 0-10
Source text: as §1

Jussiaea linifolia = test: as above; conditions: 1,500 GM.A.I./HA, scale 0-10
Source text: as §1

Sphenoclea zeylanica [8] = test: as above; conditions: 1,500 GM.A.I./HA, scale 0-10
Source text: as §1

rice [9] = test: Effects on rice growth in Thailand, phytotoxicity (Table 2); conditions: 600 GAI/HA, scale 0-10
Source text: as §1

Sphenoclea zeylanica [10] = test: Field test applied at 7 DAS in direct seeded rice (Table 11); conditions: 1,500 GM.A.I./HA, scale 0-10
Source text: as §1

Cyperus difformis = test: as above; conditions: 1,500 GM.A.I./HA, scale 0-10
Source text: as §1

weeds = test: Greenhouse test of Compound 1 and Compound 2, herbicidal efficacy (Table 26); conditions: rated 24 days after treatment; for % CONTROL OR INJURY AT: Alisma triviale; for % CONTROL OR INJURY AP: Alternanthera philoxeroides; for % CONTROL OR INJURY CD: Cyperus difformis; for % CONTROL OR INJURY SR: Sagittaria rigida
Source text: as §1

[11] = tested on: transplanted rice (var. Nihonbare); test: Crop tolerance of transplanted rice, combinations with Thiobencarb, Dimepiperate, Esprocarb and Dymron (Table 15)
Source text: as §1

WEED [12] = test: Effects in combination with Bensulfuron Methyl and Thiobencarb or Pretilachlor on weed control (Table 25); conditions: scale 0 to 10, treated at 2.0 leaf stage, evaluated four weeks later; for WEED CONTROL RATINGS CD: Cyperus difformis; for WEED CONTROL RATINGS CS: Cyperus serotinus; for WEED CONTROL RATINGS EO: Echinochloa oryzicola; for WEED CONTROL RATINGS BL: Lindernia pyxidaria; for WEED CONTROL RATINGS MV: Monochoria vaginalis; for WEED CONTROL RATINGS SP: Sagittaria pygmaea; for WEED CONTROL RATINGS SJ: Scirpus juncoides
Source text: as §1

WEED [13] = test: Effects in combination with Bensulfuron Methyl and Thiobencarb or Pretilachlor on weed control (Table 24); conditions: scale 0 to 10, treated at 1.0 leaf stage, evaluated four weeks later; for WEED CONTROL RATINGS CD: Cyperus difformis; for WEED CONTROL RATINGS CS: Cyperus serotinus; for WEED CONTROL RATINGS EO: Echinochloa oryzicola; for WEED CONTROL RATINGS BL: Lindernia pyxidaria; for WEED CONTROL RATINGS MV: Monochoria vaginalis; for WEED CONTROL RATINGS SP: Sagittaria pygmaea; for WEED CONTROL RATINGS SJ: Scirpus juncoides
Source text: as §1

rice [14] = test: Effects in combination with Bensulfuron Methyl and Thiobencarb or Pretilachlor on rice growth (Table 23); conditions: var. Koshihikari, applied 7 days after transplanting, rated 21 days after application
Source text: as §1

[15] = 2100 GAI/HA, 15 days after application
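Wherever YIELD is given: yield in Tons/ha.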

## COC(=O)c1ccccc1CS(=O)(=O)NC(=O)Nc1nc(OC)cc(OC)n1
Rice [1]; rate 75 g ai/ha
  CROP TOLERANCE DW (Dry weight relative to untreated check): 76%
  CROP TOLERANCE PH (Plant height relative to untreated check): 84%
  CROP TOLERANCE VA (Visual crop injury): 3.5%

## CCCCOC(=O)COc1ccc(Cl)cc1Cl [2,4-D (BUTYL ESTER), reference compound]
FIMBRISTYLIS MILIACEA [2]; applied 7 DAS
  FIMBRISTYLIS MILIACEA CONTROL: 94%
FIMBRISTYLIS MILIACEA [2]; applied 14 DAS
  FIMBRISTYLIS MILIACEA CONTROL: 98%
FIMBRISTYLIS MILIACEA [2]; applied 21 DAS
  FIMBRISTYLIS MILIACEA CONTROL: 60%
FIMBRISTYLIS MILIACEA [2]; applied 28 DAS
  FIMBRISTYLIS MILIACEA CONTROL: 43%

## O=C([O-])COc1ccc(Cl)cc1Cl.[Na+] [2,4-D (SODIUM SALT), 2,4-dichlorophenoxyacetic acid, sodium salt]
Cyperus iria [3]
  WEED CONTROL at 6 WAA CI: 10
Sphenoclea zeylanica [4]
  WEED CONTROL at 6 WAA SZ: 6.67
Rice [5]; applied 7 DAS
  PHYTOTOXICITY: 5.0
Rice [5]; applied 14 DAS
  PHYTOTOXICITY: 3.67
Rice [5]; applied 21 DAS
  PHYTOTOXICITY: 3.0
Rice [5]; applied 28 DAS
  PHYTOTOXICITY: 1
Direct seeded rice; 7 DAS
  YIELD: 4.13 TONS/HA
  PHYTO at 2WAA: 0
Direct seeded rice; 18 DAS
  YIELD: 4.59 TONS/HA
  PHYTO at 2WAA: 0
FIMBRISTYLIS MILIACEA [6]
  WEED CONTROL at 6 WAA FM: 9.33
Cyperus iria [7]
  WEED CONTROL at 6 WAA CI: 9.33
Jussiaea linifolia
  WEED CONTROL at 6 WAA JL: 10
Sphenoclea zeylanica [8]
  WEED CONTROL at 6 WAA SZ: 4.67
Rice [9]; applied 7 DAS
  PHYTOTOXICITY: 2.33
Rice [9]; applied 14 DAS
  PHYTOTOXICITY: 1.33
Rice [9]; applied 21 DAS
  PHYTOTOXICITY: 0
Rice [9]; applied 28 DAS
  PHYTOTOXICITY: 0
FIMBRISTYLIS MILIACEA [2]; applied 7 DAS
  FIMBRISTYLIS MILIACEA CONTROL: 96%
FIMBRISTYLIS MILIACEA [2]; applied 14 DAS
  FIMBRISTYLIS MILIACEA CONTROL: 95%
FIMBRISTYLIS MILIACEA [2]; applied 21 DAS
  FIMBRISTYLIS MILIACEA CONTROL: 93%
FIMBRISTYLIS MILIACEA [2]; applied 28 DAS
  FIMBRISTYLIS MILIACEA CONTROL: 98%
Sphenoclea zeylanica [10]
  WEED CONTROL at 6 WAA SZ: 6.0
Cyperus difformis
  WEED CONTROL at 6 WAA CD: 10

## COC(=O)c1ccccc1S(=O)(=O)NC(=O)Nc1nc(OC)cc(OC)n1 [Compound 2, methyl 2-[[[[(4,6-dimethoxy-2-pyrimidinyl)amino]carbonyl]amino]sulfonyl]benzoate]
weeds; rate 1 g ai/ha
  % CONTROL OR INJURY AT: 95%
  % CONTROL OR INJURY AP: 0%
  % CONTROL OR INJURY CD: 70%
  % CONTROL OR INJURY SR: 0%
weeds; rate 2 g ai/ha
  % CONTROL OR INJURY AT: 95%
  % CONTROL OR INJURY AP: 0%
  % CONTROL OR INJURY CD: 80%
  % CONTROL OR INJURY SR: 0%
weeds; rate 4 g ai/ha
  % CONTROL OR INJURY AT: 95%
  % CONTROL OR INJURY AP: 20%
  % CONTROL OR INJURY CD: 100%
  % CONTROL OR INJURY SR: 80%
weeds; rate 8 g ai/ha
  % CONTROL OR INJURY AT: 95%
  % CONTROL OR INJURY AP: 30%
  % CONTROL OR INJURY CD: 100%
  % CONTROL OR INJURY SR: 80%

## CC(C)(SC(=O)N1CCCCC1)c1ccccc1 [Dimepiperate, S-1-methyl-1-phenylethylpiperidine-1-carbothioate]
[11]; in vivo
  CROP TOLERANCE (Nihonbare) PH, plant height relative to untreated check: 102%
  CROP TOLERANCE (Nihonbare) VA, visual crop injury: 0%

## Cc1ccc(NC(=O)NC(C)(C)c2ccccc2)cc1 [Dymron, 1-(α,α-dimethylbenzyl)-3-p-tolylurea]
[11]; [15]
  CROP TOLERANCE (Nihonbare) DW, dry weight relative to untreated check: 107%
  CROP TOLERANCE (Nihonbare) PH, plant height relative to untreated check: 102%
  CROP TOLERANCE (Nihonbare) VA, visual crop injury: 0%

## CCN(C(=O)SCc1ccccc1)C(C)C(C)C (centres unmarked) [Esprocarb, S-benzyl-N-ethyl-N-(1,2-dimethyl)-propylthiol carbamate]
[11]; [15]
  CROP TOLERANCE (Nihonbare) DW, dry weight relative to untreated check: 94%
  CROP TOLERANCE (Nihonbare) PH, plant height relative to untreated check: 92%
  CROP TOLERANCE (Nihonbare) VA, visual crop injury: 0%

## CCCOCCN(C(=O)CCl)c1c(CC)cccc1CC [PRETILACHLOR]
WEED [12]; rate 600 g ai/ha
  WEED CONTROL RATINGS CD: 10
  WEED CONTROL RATINGS CS: 3
  WEED CONTROL RATINGS EO: 7
  WEED CONTROL RATINGS BL: 7
  WEED CONTROL RATINGS MV: 3
  WEED CONTROL RATINGS SP: 6
  WEED CONTROL RATINGS SJ: 2
WEED [13]; rate 600 g ai/ha
  WEED CONTROL RATINGS CD: 10
  WEED CONTROL RATINGS CS: 3
  WEED CONTROL RATINGS EO: 10
  WEED CONTROL RATINGS BL: 10
  WEED CONTROL RATINGS MV: 5
  WEED CONTROL RATINGS SP: 3
  WEED CONTROL RATINGS SJ: 5

## CCCOCCN(C(=O)CCl)c1c(CC)cccc1CC [Pretilachlor]
Rice [14]; rate 600 g ai/ha
  CROP TOLERANCE DW (Dry weight relative to untreated check): 71%
  CROP TOLERANCE PH (Plant height relative to untreated check): 87%
  CROP TOLERANCE VA (Visual crop injury): 3%

## CCN(CC)C(=O)SCc1ccc(Cl)cc1 [Thiobencarb, S-[(4-chlorophenyl)methyl]diethylcarbamothioate, reference compound]
WEED [12]; rate 2100 g ai/ha
  WEED CONTROL RATINGS CD: 10
  WEED CONTROL RATINGS CS: 2
  WEED CONTROL RATINGS EO: 6
  WEED CONTROL RATINGS BL: 9.5
  WEED CONTROL RATINGS MV: 10
  WEED CONTROL RATINGS SP: 0
  WEED CONTROL RATINGS SJ: 8.5
Rice [1]; rate 2100 g ai/ha
  CROP TOLERANCE DW (Dry weight relative to untreated check): 99%
  CROP TOLERANCE PH (Plant height relative to untreated check): 99%
  CROP TOLERANCE VA (Visual crop injury): 0%
Rice [14]; rate 2100 g ai/ha
  CROP TOLERANCE DW (Dry weight relative to untreated check): 81%
  CROP TOLERANCE PH (Plant height relative to untreated check): 93%
  CROP TOLERANCE VA (Visual crop injury): 2%
[11]; [15]
  CROP TOLERANCE (Nihonbare) DW, dry weight relative to untreated check: 112%
  CROP TOLERANCE (Nihonbare) PH, plant height relative to untreated check: 102%
  CROP TOLERANCE (Nihonbare) VA, visual crop injury: 0%
WEED [13]; rate 2100 g ai/ha
  WEED CONTROL RATINGS CD: 10
  WEED CONTROL RATINGS CS: 9
  WEED CONTROL RATINGS EO: 10
  WEED CONTROL RATINGS BL: 9
  WEED CONTROL RATINGS MV: 10
  WEED CONTROL RATINGS SP: 0
  WEED CONTROL RATINGS SJ: 7
